{"source": "patent US20180369264A1", "about": "“COMBINATION OF A CARDIAC STEROID AND AN AKT INHIBITOR FOR THE TREATMENT OF CARDIOVASCULAR DISEASES AND DISORDERS” (YISSUM RESEARCH DEVELOPMENT COMPANY OF THE HEBREW …, priority 2015, published 2018)", "key": {"[1]": {"test_system": "wild-type zebrafish larvae heart", "assay_type": "in vivo, zebrafish (Danio rerio)", "description": "Experiments were performed on wild-type (WT, AB strain) zebrafish (Danio rerio). The fish were maintained in accordance with the principles established by the NIH. […] The fish were kept in swimming medium (E3 medium) in small aquaria at 28° C. and maintained under a 14h: 10h light:dark cycle. The zebrafish larvae were maintained in the presence of 0.1% methylene blue (M9140, Sigma-Aldrich Inc, Israel) at 28° C. All measurements were taken in embryos at 72 hours post fertilization (hpf).\nOuabain, bufalin, digoxin, acetylcholine, carbachol, […] (pp2) and U0126 (1,4-diamino-2,3-dicyano-1,4-bis(2-aminophenylthio)butadiene) were purchased from Sigma-Aldrich Inc., Israel. The compounds were dissolved in egg water (0.3 g Instant Ocean Salt in distilled water) to a final selected concentration, as specified in the following examples. […]\nFilming process Zebrafish larvae heart imaging was performed using an Olympus CKX41 (Japan) […] microscope with ×10 or ×20 magnification, and integrated incandescent illumination. A FastCam imi-tech (Korea) high speed digital camera with 640×480 pixel gray scale image sensor was mounted on the microscope, using ImCam software (IMI Technology, Co. Ltd) for high speed video recording. The larvae were anesthetized by placing them in filming/anesthetizing medium. Each larva in 0.5 ml filming/anesthetizing medium was transferred to a 96-well tissue culture plate at room temperature and sequential images of the heart were obtained, with the larvae positioned on their side, at 80 fps during 10 seconds with a shutter speed of 0.016 seconds.\nPhysiological parameters of cardiovascular performance, as indicated hereinbelow, were evaluated in the zebrafish larvae. Image analysis applications ImageJ (NIH, USA) were used, allowing the delineation of the endomyocardial border at the end of systole or end of diastole to define the ventricular area. Sequential still frames were analyzed to capture ventricular end-systole and end-diastole images. End Systolic Area (ESA, FIG. 1B) and End Diastolic Area (EDA, FIG. 1C) were used to calculate Fractional Area Change (FAC), according to the equation: FAC=(EDA-ESA)/EDA*100. The Ejection Fraction (EF) was determined by an independent estimate of ventricular volume. This was achieved by placing scan lines across the midventricular short axis (SA) and long axis (LA) at the end of systole (FIG. 1D) and diastole (FIG. 1E). […] EF was then calculated according to the equation: EF=(EDV-ESV)/EDV*100. Heart rate (HR) was measured in beats per minute. Cardiac output (CO) was calculated according to the equation: CO=(EDV-ESV)*HR. A minimum of five sequential pairs of systolic and diastolic cycles were measured and analyzed in 9-12 larvae for each treatment."}, "[2]": {"test_system": "primary adult zebrafish cardiomyocytes", "assay": "Primary adult zebrafish cardiomyocyte contractility", "assay_type": "cell-based", "settings": "for Amplitude / Contraction Rate (−dv/dt) / Relaxation Rate (+dv/dt): wt, 0.1 nM Oua, 0.5 Hz", "description": "Adult (4 to 12-month-old) ventricular myocytes were obtained by enzymatic dissociation (with collagenase II and IV, at 5 mg/ml, each). The zebrafish were stunned by a blow to the head and the brain was pithed. The heart was quickly removed and placed in a small Petri dish containing 10 ml isolation solution: 100 mM NaCl, 10 mM KCl, 1.2 mM KH2PO4, 4 mM MgSO4, 50 mM taurine, 20 mM glucose, and 10 mM Hepes, pH 6.9. The ventricle was cut free from the bulbus and atrium under a binocular. Ventricles from 3 fish were incubated for 45 minutes at 32° C. in a solution containing perfusion buffer (150 mM NaCl, 5.4 mM KCl, 1.5 mM MgSO4, 0.4 mM NaH2PO4, 2 mM CaCl2, 10 mM glucose, and 10 mM Hepes, pH 7.7). Collagenases II and IV (Gibco, NY, USA, 5 mg/ml each) and additional CaCl2 (2.012 mM final concentration) were added. Following Eppendorf centrifugation (1 minute, 250×g at room temperature) the precipitated cells were suspended in 1 ml perfusion buffer for 30 minutes at room temperature before use.\nCells were transferred to a chamber with a quartz base and examined using an inverted epifluorescence microscope (Nikon Diaphot 200, Japan). The myocytes were field-stimulated (0.5 Hz, 70 V, square waves) and contractions were measured using a video motion edge detector (Crescent Electronics, Sandy, Utah, USA) at the rate of 5 Hz. Cardiomyocyte performance was calculated as the percentage of resting cell length. The slopes of contraction and relaxation (+dL/dt and −dL/dt) were calculated from the linear portions of the changes in contractility. 9 cells per each group were measured. Each of the experiments was repeated at least 3 times with identical results."}, "LAD-ligated rats": {"test_system": "LAD-ligated rats", "assay": "Heart contractility (echocardiography: SF, HR) in LAD-ligated rats", "assay_type": "in vivo, rat", "settings": "for effect on heart rate: 24 hours, 3 and 6 days post MI; for SF improvement relative to 24 hours post MI: ouabain 0.8 mg/kg/day, MK-2206 12 mg/kg/day, 3, 6 and 10 days post MI", "description": "Male Wister rats (150-175 g body weight) were used. Left anterior descending artery (LAD)-ligation was performed in all animals. The rats were divided to four groups, each treated with subcutaneous injection with saline (0.5 ml/kg/day), ouabain (0.8-8 mg/kg/day), MK-2206 (12 mg/Kg/day) or a combination of MK-2206 and ouabain. All injected solutions contained 9% DMSO. Heart contractility in-vivo was monitored using echocardiography. At the end of the treatment period, animals were sacrificed and heart and blood samples were harvested for analysis. Blood samples were also collected (from the eye) at baseline and 24 hours post myocardial infarction (MI).\nRats were anesthetized with 10% ketamine, 2% xylazine (0.1 ml/kg) and ventilated with a small animal respirator (Harvard). The heart was exposed via left sternotomy, and the LAD-ligation was induced by placing a 6-0 silk suture around the left anterior descending coronary artery near the atrial auricle. The animals were allowed to recover and treated with 0.5 mg/100 g Tramadol Hydrochloride by subcutaneous injection for post-operative analgesia.\nEchocardiograms were performed on rats anesthetized with 2% isoflurane at baseline, at 24 hours, as well as at 3, 6 and 10 days post LAD-ligation, using a VEVO 770 equipped with a 30 MHz linear transthoracic transducer (VisualSonics). Measurements were performed in triplicate using the leading-edge convention for myocardial borders as defined by the […]. Left ventricular, end-diastolic and end-systolic diameters (LVEDD and LVESD), diastolic and systolic interventricular septal diameters (IVSD and IVSS), left ventricular diastolic area (LVEDA), left ventricular systolic area (LVESA), and heart rate (HR) were measured. Shortening fraction (SF) was calculated by the equation: SF (%)=(LVEDD−LVESD)/LVEDD×100. Heart rate was measure by peak intervals of the echocardiography measurements. All measurements were performed by an individual who was blind to the entire experimental protocol and animal treatments."}, "[3]": {"settings": "wt larvae, 10 nM MK-2206, 1 nM CS"}, "[4]": {"settings": "pre-incubation 1 nM MK-2206, 0.1 nM ouabain"}, "[5]": {"settings": "Akt inhibitor experiment, 1 nM MK, 20 minutes"}, "[6]": {"settings": "ERK inhibitor experiment, 10 nM PD98059, 20 minutes"}}, "note": "Where two headings read alike, the source gives them in different places.", "data": [{"smiles": "NC1(c2ccc(-c3nc4ccn5c(=O)[nH]nc5c4cc3-c3ccccc3)cc2)CCC1", "note": "[MK-2206]", "values": [{"measurement": "effect of inhibitor alone on heart function / basal contractility", "setting": "[1]; PP2 50 nM, U0126 1 μM, MK-2206 10 nM for 2 hours", "value": "did not affect heart contractility parameters"}, {"measurement": "effect on CS-induced increase in heart contractility (FAC and EF) compared with CS in the absence of the inhibitor", "setting": "[1]; [3]", "value": "doubling of the CS-induced increase in heart contractility"}, {"measurement": "effect on heart rate of MK-2206 with CS", "setting": "[1]; [3]", "value": "not accompanied by any effect on heart rate"}, {"measurement": "contractility parameters, inhibitor by itself", "setting": "[2]; 1 nM MK-2206", "value": "did not affect any of the contractility parameters"}, {"measurement": "enhancement of ouabain-induced augmentation: increase in amplitude", "setting": "[2]; [4]", "value": 113, "unit": "%"}, {"measurement": "enhancement of ouabain-induced augmentation: increase in contraction rise time", "setting": "[2]; [4]", "value": 183, "unit": "%"}, {"measurement": "enhancement of ouabain-induced augmentation: increase in relaxation rise time", "setting": "[2]; [4]", "value": 169, "unit": "%"}, {"measurement": "Amplitude", "setting": "[2]; [5]", "value": "0.19 ± 0.03"}, {"measurement": "Contraction Rate (−dv/dt)", "setting": "[2]; [5]", "value": "0.98 ± 0.19"}, {"measurement": "Relaxation Rate (+dv/dt)", "setting": "[2]; [5]", "value": "0.87 ± 0.20"}, {"measurement": "effect on heart rate", "setting": "LAD-ligated rats", "value": "did not affect significantly heart rate"}, {"measurement": "SF improvement relative to 24 hours post MI", "setting": "LAD-ligated rats", "value": "did not result in SF improvement"}]}, {"smiles": "C[C@@H]1O[C@@H](O[C@H]2C[C@@H](O)[C@]3(CO)[C@H]4[C@H](O)C[C@]5(C)[C@@H](C6=CC(=O)OC6)CC[C@]5(O)[C@@H]4CC[C@]3(O)C2)[C@H](O)[C@H](O)[C@H]1O", "note": "[ouabain, 3-(alpha-L-Rhamnopyranosyloxy)-1beta,5beta,11alpha,14,19-pentahydroxy-5beta-card-20(22)-enolide]", "values": [{"measurement": "maximal increase in CO", "setting": "[1]; 0.2 nM, 90 minutes", "value": "38±3.68", "unit": "%"}, {"measurement": "effect on force of contraction", "setting": "[1]; 1 nM", "value": "increased significantly the force of contraction"}, {"measurement": "effect on heart rate", "setting": "[1]; 1 nM", "value": "without affecting heart rate"}, {"measurement": "effect on heart rate", "setting": "[1]; 0.05-0.4 nM, 90 minutes", "value": "no change in heart rate"}, {"measurement": "concentration producing a significant increase in heart contractility", "setting": "[1]; added to larvae swimming medium", "value": 0.1, "unit": "nM"}, {"measurement": "effect on heart force of contraction (FAC, EF, CO)", "setting": "[1]; low concentrations (ouabain 0.05-0.4 nM), 90 minutes", "value": "significant increase in the heart force of contraction in a dose-dependent manner"}, {"measurement": "increase in contractility", "setting": "[2]; 0.1 nM ouabain", "value": "three- to fourfold"}, {"measurement": "Amplitude", "setting": "[2]; [5]", "value": "0.38 ± 0.05"}, {"measurement": "Contraction Rate (−dv/dt)", "setting": "[2]; [5]", "value": "1.84 ± 0.28"}, {"measurement": "Relaxation Rate (+dv/dt)", "setting": "[2]; [5]", "value": "1.64 ± 0.23"}, {"measurement": "Amplitude", "setting": "[2]; [6]", "value": "0.53 ± 0.1"}, {"measurement": "Contraction Rate (−dv/dt)", "setting": "[2]; [6]", "value": "3.65 ± 0.38"}, {"measurement": "Relaxation Rate (+dv/dt)", "setting": "[2]; [6]", "value": "2.92 ± 0.37"}, {"measurement": "effect on shortening fraction (SF) following LAD-ligation", "setting": "LAD-ligated rats; 0.8 mg/kg/day, by itself", "value": "did not increase SF"}, {"measurement": "effect on shortening fraction (SF) following LAD-ligation", "setting": "LAD-ligated rats; 8 mg/kg/day", "value": "significantly increased the SF of the heart starting at the 3rd day of treatment"}, {"measurement": "effect on heart rate", "setting": "LAD-ligated rats", "value": "did not affect significantly heart rate"}, {"measurement": "SF improvement relative to 24 hours post MI", "setting": "LAD-ligated rats", "value": "did not result in SF improvement"}]}]}
